Test results taken from patent publication US7041638B2, “Surfactant prevention of vaginitis and lung complications from cancer chemotherapy” (The Penn State Research Foundation, priority 2001, dated 2006).
Like-named read-outs stand apart in the source and are kept apart here.

Tests used:
Type in all cases: cell-based, human
[1] = tested on: THP-1 cells; assay: Cytokine production by differentiated THP-1 cells after SP-A, bleomycin or Ara-C (ELISA); conditions: for TNF-α level in culture medium: mean±SEM, FIG. 3A
Experimental: (§1) The THP-1 cell line was obtained from the American Type Culture Collection. Cells were grown in RPMI 1640 medium (Sigma) with 0.05 mM 2-mercaptoethanol containing 10% fetal calf serum (FCS; Summit Biotechnology) at 37° C. in an atmosphere of 5% CO2. The cells were split periodically and used at passages 8–15 in the various experiments. After differentiation with 10^−8 M Vitamin D3 for 72 h, cells were pelleted and washed with cold PBS. The cell pellet was then resuspended in complete RPMI 1640 medium with 10% FCS at a density of 2×10^6 cells/ml in 24-well culture plates, and exposed to bleomycin and SP-A. Cell viability was determined by trypan blue exclusion. […] Incubations were terminated by pelleting the cells. Supernatants and/or cell pellet were stored at −80° C. until assayed.
(§2) After differentiation with 10^−8 M of vitamin D3 for 72 h, THP-1 cells were pelleted and washed as described above. Cells at a density of 2×10^6 cells/ml were incubated at 24 well culture plates. For dose-response study, cells were stimulated with bleomycin at concentrations ranging from 0–100 mU/ml. Time-dependent secretion of cytokines following bleomycin treatment was studied from 0–24 h with 5 and 50 mU/ml of bleomycin. In experiments where the combined effects of SP-A and bleomycin were examined, SP-A (10 μg/ml) and bleomycin (5 or 50 mU/ml) were added to cells simultaneously, unless otherwise noted. After treatment, the culture medium was collected at 4 h or 6 h for the ELISA assay of cytokine production and cells were harvested at 2 h or 4 h for cytokine mRNA analysis.
Cytosine arabinoside (Ara-C, Cytosar-U, Pharmacia & Upjohn) was included in some experiments to confirm the specificity of the effect of bleomycin on proinflammatory cytokine production by THP-1 cells. Ara-C is another antineoplastic agent with known cytotoxicity. […] Ara-C, at concentrations ranging from 0.1 to 5 mM in culture medium, was used for evaluating the effect of Ara-C on TNF-α. The conditions employed in the Ara-C experiments were the same as those in bleomycin studies except that only a 4 h time point was done.
The ELISA assays for TNF-α, IL-8, and IL-1β (OptEIA Human ELISA Sets, Pharmingen) were performed according to the instructions recommended by the manufacturer. The ELISA kits were capable of measuring levels of 7.8–500 pg/ml for TNF-α, 6.2–400 pg/ml for IL-8 and 20–1000 pg/ml for IL-1β. A reference curve for each of these cytokines was obtained by plotting the concentration of several dilutions of standard protein versus the corresponding absorbance.

[2] = tested on: THP-1 cells; assay: Cytokine mRNA in THP-1 cells by ribonuclease protection assay (RPA); conditions: for relative intensity of TNF-α mRNA / IL-8 mRNA level: SP-A 10 μg/ml and/or bleomycin 5 mU/ml, normalized to L32; for relative intensity of TNF-α mRNA: FIG. 4A; for IL-8 mRNA level: 4 h, FIG. 4B
Experimental: as §2
Total RNA was isolated from THP-1 cells at 2 h or 4 h after treatment by using Rneasy Mini Kits (QIAGEN) according to the protocol of the RNeasy Mini Handbook. Cytokine mRNA quantification was performed by ribonuclease protection assay (RPA). RiboQuant™ Ribonuclease RPA Starter Package and a Customized Human Template Set (Pharmingen) were used to analyze TNF-α, IL-1β, and IL-8 mRNA in one assay. The customized template set contains DNA templates that can be used for T7 RNA polymerase-directed synthesis of α-^32P-UTP-labeled, anti-sense RNA probes. These can be hybridized to TNF-α, IL-1β, and IL-8 mRNA. Templates for the L32 and GAPDH housekeeping genes were also included to allow for normalization of sampling or technical error. Aliquots of 2 μg of total RNA were hybridized with radiolabeled probes at 56° C. for 16 h. RNase treatment followed, resulting in degradation of single-stranded RNA and free probes. After inactivation and precipitation, protected probes were resolved by a 5% polyacrylamide-urea sequence gel electrophoresis and visualized by autoradiography. Densities of the protected bands were quantified by soft laser densitometry. The mRNA level is expressed as the ratio of the densitometric value of each cytokine mRNA to that of the L32 or GAPDH mRNA.

[3] = tested on: THP-1 cells; assay: Cell viability by trypan blue exclusion
Experimental: as §1

[4] = SP-A 10 μg/ml and/or bleomycin 5 mU/ml, 4 h

Compound | TNF-α level in culture medium [1, 4] | relative intensity of TNF-α mRNA ([2]; 2 h) | IL-8 mRNA level [2] | effect on the viability of THP-1 cells [3] | TNF-α level after Ara-C treatment versus control ([1]; Ara-C 0.1 to 5 mM, 4 h, FIG. 1D) | lowest bleomycin concentration that increased TNF-α level ([1]; 4 h, dose range 0–100 mU/ml, FIG. 1A) | lowest bleomycin concentration that increased IL-8 level ([1]; 4 h, dose range 0–100 mU/ml, FIG. 1B) | bleomycin concentration needed to increase IL-1β level significantly ([1]; 6 h, dose range 0–100 mU/ml, FIG. 1C) | time to maximum TNF-α level ([1]; bleomycin 5, 50 mU/ml, depending on dose, FIG. 2A) | time at which increase of TNF-α levels was detected ([1]; bleomycin 5, 50 mU/ml, 0–24 h, FIG. 2A) | time at which TNF-α returned to background levels ([1]; bleomycin 5, 50 mU/ml, FIG. 2A) | time to maximal IL-8 level ([1]; bleomycin 5, 50 mU/ml, FIG. 2B) | time to peak IL-1β level ([1]; bleomycin 5, 50 mU/ml, FIG. 2C) | TNF-α level in culture medium ([1]; bleomycin 50 mU/ml with or without SP-A 10 μg/ml, 4 h) | relative intensity of IL-1β mRNA ([2]; 2 h, SP-A 10 μg/ml, bleomycin 5 mU/ml, LPS 0.1 ng/ml) | effect on the viability of THP-1 cells ([3]; conditions employed in this study)
SP-A: native human surfactant protein A purified from bronchoalveolar lavage of alveolar proteinosis patients | 86.6 ± 11.5 pg/mL | 0.51±0.27 | 1.26±0.14 | neither bleomycin nor SP-A appeared to have any effect |  |  |  |  |  |  |  |  |  |  |  | 
Nc1ccn([C@@H]2O[C@H](CO)[C@@H](O)[C@@H]2O)c(=O)n1 [Ara-C, Cytosine arabinoside] |  |  |  |  | did not differ from that of control |  |  |  |  |  |  |  |  |  |  | 
bleomycin | 45.9 ± 10.6 pg/mL | 0.74±0.20 | 1.02±0.16 |  |  | 0.5 mU/ml | 0.5 mU/ml | 50 mU/ml | 4 to 6 h | 3 h | 24 h | around 5 h | 10 h | 82.1 ± 17.3 pg/mL | Very low levels | neither bleomycin nor SP-A appeared to have any effect
